According to BindingDB's records for doi:10.1016/j.chembiol.2011.12.010 (Boston College, 2012):

Tests used:
Experiment in all cases: In Vitro Enzyme Assay
[1] = target: Cone cGMP-specific 3',5'-cyclic phosphodiesterase subunit alpha' (Homo sapiens, UniProt P51160)
[2] = target: Dual specificity calcium/calmodulin-dependent 3',5'-cyclic nucleotide phosphodiesterase 1C (Human, UniProt Q14123)
[3] = target: T1, cGMP-dependent 3',5'-cyclic phosphodiesterase (Rattus norvegicus, UniProt Q01062)
T1 sequence (Q01062 whole entry): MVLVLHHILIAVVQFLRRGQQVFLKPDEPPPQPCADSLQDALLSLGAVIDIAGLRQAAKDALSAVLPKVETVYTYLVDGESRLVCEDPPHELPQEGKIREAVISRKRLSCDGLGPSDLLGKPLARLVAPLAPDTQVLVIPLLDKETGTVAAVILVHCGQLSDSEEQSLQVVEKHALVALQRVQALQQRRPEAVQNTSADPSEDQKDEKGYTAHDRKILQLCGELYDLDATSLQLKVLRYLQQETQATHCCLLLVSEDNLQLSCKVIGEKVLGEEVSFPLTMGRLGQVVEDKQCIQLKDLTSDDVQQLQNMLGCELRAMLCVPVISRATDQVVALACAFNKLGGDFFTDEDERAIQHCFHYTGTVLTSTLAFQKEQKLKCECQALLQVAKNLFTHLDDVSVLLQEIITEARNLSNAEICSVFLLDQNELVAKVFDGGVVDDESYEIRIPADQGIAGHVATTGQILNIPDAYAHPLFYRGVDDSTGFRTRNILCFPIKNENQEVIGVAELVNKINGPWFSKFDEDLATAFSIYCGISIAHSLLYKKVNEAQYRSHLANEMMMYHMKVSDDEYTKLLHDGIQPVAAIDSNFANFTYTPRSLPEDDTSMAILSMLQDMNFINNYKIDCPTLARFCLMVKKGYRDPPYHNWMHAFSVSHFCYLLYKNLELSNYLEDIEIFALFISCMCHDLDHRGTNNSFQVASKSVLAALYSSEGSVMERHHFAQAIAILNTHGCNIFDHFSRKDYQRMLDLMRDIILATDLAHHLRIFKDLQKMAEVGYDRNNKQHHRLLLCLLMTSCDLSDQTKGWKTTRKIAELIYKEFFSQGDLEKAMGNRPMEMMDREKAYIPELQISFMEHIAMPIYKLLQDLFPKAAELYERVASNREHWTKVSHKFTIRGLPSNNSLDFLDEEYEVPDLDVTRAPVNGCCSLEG

[4] = target: cGMP-inhibited 3',5'-cyclic phosphodiesterase 3B (Homo sapiens, UniProt Q13370)
[5] = target: Dual 3',5'-cyclic-AMP and -GMP phosphodiesterase 11A (Homo sapiens, UniProt Q9HCR9)
[6] = target: cAMP and cAMP-inhibited cGMP 3',5'-cyclic phosphodiesterase 10A (Homo sapiens, UniProt Q9Y233)
[7] = target: High affinity cAMP-specific 3',5'-cyclic phosphodiesterase 7A (Homo sapiens, UniProt Q13946)
High affinity cAMP-specific 3',5'-cyclic phosphodiesterase 7A, sequence (Q13946 whole entry): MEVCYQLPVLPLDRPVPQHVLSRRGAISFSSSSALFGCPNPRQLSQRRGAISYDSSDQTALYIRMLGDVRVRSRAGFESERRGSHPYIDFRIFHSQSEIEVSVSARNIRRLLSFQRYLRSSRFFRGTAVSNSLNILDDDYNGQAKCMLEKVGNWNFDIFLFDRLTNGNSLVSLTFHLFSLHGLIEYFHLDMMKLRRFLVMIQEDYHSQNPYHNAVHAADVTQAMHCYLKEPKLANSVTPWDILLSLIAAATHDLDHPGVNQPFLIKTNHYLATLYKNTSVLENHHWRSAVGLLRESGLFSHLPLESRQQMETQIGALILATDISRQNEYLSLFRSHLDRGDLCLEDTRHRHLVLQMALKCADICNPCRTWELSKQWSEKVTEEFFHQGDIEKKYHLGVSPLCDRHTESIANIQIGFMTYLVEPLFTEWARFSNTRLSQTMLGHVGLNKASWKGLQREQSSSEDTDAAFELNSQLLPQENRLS

Dual 3',5'-cyclic-AMP and -GMP phosphodiesterase 11A, sequence (Q9HCR9 whole entry): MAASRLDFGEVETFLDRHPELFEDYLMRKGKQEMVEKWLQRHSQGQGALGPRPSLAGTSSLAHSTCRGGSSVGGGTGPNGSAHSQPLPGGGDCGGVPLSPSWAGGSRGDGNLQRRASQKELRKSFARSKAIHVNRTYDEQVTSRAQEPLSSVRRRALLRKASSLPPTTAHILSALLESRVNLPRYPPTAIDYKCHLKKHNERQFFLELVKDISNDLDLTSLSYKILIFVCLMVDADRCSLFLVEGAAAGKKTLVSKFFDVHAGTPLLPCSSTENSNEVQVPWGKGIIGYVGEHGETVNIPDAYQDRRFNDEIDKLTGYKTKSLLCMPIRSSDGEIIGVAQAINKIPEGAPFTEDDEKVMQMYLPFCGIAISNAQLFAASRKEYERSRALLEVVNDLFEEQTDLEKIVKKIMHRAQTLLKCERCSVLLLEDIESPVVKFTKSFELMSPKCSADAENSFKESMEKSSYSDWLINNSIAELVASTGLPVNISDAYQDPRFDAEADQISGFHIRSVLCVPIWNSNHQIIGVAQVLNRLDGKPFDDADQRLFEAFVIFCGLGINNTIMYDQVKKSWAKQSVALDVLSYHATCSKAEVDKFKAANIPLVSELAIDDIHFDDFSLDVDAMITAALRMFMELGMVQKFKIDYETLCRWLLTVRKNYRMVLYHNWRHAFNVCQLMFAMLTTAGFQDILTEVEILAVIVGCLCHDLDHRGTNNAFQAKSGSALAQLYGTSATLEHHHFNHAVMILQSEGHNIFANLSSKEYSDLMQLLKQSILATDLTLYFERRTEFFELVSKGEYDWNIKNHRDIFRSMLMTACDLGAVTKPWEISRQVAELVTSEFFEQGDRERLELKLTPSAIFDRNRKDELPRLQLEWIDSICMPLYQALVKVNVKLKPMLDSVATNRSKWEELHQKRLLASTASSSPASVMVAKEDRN
Dual specificity calcium/calmodulin-dependent 3',5'-cyclic nucleotide phosphodiesterase 1C, sequence (Q14123 whole entry): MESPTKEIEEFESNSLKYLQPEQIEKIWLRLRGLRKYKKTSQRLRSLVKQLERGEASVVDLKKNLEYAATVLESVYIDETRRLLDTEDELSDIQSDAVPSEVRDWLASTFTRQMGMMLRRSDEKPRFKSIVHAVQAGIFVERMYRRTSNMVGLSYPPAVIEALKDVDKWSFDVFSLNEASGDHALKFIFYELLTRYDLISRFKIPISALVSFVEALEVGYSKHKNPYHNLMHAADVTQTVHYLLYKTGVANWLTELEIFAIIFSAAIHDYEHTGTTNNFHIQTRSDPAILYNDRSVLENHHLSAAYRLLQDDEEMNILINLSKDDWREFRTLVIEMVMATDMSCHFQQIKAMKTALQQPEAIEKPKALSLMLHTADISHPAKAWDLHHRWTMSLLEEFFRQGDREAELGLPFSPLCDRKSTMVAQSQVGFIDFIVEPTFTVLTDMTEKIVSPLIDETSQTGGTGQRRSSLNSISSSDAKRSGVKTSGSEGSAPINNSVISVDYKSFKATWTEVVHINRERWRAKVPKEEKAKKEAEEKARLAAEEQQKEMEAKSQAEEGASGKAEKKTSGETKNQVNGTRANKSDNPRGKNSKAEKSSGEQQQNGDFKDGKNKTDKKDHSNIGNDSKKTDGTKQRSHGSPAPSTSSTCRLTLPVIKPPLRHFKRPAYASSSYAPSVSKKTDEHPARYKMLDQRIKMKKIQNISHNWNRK
cGMP-inhibited 3',5'-cyclic phosphodiesterase 3B, sequence (Q13370 whole entry): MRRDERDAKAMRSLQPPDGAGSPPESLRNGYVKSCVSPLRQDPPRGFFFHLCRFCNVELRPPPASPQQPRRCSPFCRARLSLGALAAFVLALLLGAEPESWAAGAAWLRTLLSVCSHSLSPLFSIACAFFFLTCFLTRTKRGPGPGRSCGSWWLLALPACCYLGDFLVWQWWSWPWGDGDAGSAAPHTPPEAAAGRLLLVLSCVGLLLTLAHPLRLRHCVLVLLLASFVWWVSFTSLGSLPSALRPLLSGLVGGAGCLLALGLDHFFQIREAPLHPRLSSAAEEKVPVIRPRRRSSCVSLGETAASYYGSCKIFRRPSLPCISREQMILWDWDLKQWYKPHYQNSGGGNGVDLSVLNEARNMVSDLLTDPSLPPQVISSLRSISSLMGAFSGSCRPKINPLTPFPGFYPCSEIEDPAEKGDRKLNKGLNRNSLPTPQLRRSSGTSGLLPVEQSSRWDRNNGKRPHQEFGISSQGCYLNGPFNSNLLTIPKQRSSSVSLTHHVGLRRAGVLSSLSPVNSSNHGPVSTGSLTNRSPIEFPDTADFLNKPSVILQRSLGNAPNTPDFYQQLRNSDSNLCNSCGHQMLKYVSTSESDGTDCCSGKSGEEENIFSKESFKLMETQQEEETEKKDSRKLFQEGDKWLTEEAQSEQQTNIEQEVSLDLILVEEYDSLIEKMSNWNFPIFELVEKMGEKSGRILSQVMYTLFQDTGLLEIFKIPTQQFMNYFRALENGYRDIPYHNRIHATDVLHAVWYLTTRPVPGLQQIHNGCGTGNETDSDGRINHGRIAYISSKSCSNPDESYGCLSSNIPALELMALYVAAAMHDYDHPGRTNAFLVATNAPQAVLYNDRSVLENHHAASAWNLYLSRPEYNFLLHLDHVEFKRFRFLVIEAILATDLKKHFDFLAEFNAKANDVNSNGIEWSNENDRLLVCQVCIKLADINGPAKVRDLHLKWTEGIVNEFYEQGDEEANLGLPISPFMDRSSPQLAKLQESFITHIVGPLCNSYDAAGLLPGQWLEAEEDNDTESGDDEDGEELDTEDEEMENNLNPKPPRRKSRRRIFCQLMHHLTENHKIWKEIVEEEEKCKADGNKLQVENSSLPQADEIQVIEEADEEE
Cone cGMP-specific 3',5'-cyclic phosphodiesterase subunit alpha', sequence (P51160 whole entry): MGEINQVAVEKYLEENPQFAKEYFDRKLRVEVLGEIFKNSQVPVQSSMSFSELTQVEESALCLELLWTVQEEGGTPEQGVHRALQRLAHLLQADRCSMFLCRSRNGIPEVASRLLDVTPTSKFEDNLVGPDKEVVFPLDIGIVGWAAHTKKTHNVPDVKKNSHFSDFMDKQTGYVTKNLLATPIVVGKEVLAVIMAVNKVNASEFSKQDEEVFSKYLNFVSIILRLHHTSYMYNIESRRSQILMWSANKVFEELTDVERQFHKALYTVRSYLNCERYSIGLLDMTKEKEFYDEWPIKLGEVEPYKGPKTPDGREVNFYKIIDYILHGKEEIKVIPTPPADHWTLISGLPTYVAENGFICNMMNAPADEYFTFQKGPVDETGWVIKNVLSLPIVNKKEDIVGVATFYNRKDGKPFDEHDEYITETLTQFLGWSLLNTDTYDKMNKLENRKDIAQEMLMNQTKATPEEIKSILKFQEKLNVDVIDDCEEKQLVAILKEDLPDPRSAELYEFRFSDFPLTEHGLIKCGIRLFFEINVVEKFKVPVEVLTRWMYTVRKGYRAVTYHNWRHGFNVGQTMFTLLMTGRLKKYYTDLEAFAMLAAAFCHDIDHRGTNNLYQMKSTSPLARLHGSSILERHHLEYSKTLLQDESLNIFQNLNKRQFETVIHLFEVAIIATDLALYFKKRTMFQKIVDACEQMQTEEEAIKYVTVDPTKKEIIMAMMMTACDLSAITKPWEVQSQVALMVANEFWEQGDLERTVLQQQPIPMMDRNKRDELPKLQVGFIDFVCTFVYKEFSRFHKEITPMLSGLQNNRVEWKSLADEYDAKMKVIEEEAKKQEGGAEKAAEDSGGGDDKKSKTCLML

IC50 [1] | IC50 [2] | IC50 [3] | IC50 [4] | IC50 [5] | IC50 [6] | IC50 [7] | SMILES
51.2 µM | > 100 µM | 18.4 µM | > 100 µM | – | – | – | CCC(C)Sc1nc2c(c(=O)n1-c1ccccc1)SCC2 (stereo not given) [BC11-38-2]
– | > 100 µM | – | > 100 µM | 9.9 µM | 5.8 µM | – | CCCSc1nc2c(c(=O)n1-c1ccccc1OC)SCC2 [BC11-38-4]
– | > 100 µM | – | > 100 µM | – | – | – | CCCSc1nc2c(c(=O)n1-c1ccccc1)SCC2 [BC11-38]
– | – | – | – | 2 µM | – | – | COc1ccc2c(c1)sc1nc(=O)n(Cc3ccccc3)c(=O)n12 [US9173884, BC11-19-1]
– | > 100 µM | – | > 100 µM | – | – | – | Cc1ccccc1Nc1ncnc2c1c(-c1ccccc1)cn2-c1ccc(F)cc1
– | > 100 µM | – | > 100 µM | 7.5 µM | – | 21.3 µM | CCCSc1nc2c(c(=O)n1-c1ccc(C)cc1)SCC2 [BC11-38-3]
– | – | – | > 100 µM | – | – | – | CCCCSc1nc2c(c(=O)n1-c1ccccc1)SCC2 [BC11-38-1]
– | > 100 µM | – | > 100 µM | – | – | – | CCN(CC)C(=O)c1cc(-c2cccs2)nc2c1c(C)nn2-c1ccccc1C [BC11-15]
